Where two headings read alike, the source gives them in different places.
Columns and labels:
[1] = target: T1, soluble guanylate cyclase (sGC) (Homo sapiens, UniProt Q02108+Q02153); assay: sGC-HEK-cGMP assay (run with SNP incubation); type: cell-based; conditions: for Emax: 10 μM SNP, 100% = 30 μM BAY 41-2272 with 10 μM SNP, read-out: HEK assay Emax-unconstrained (Percent); for HEK MEC-10: concentration that would elicit 10% of the Emax in the presence of 10 μM SNP; for EC50: in the presence of 10 μM SNP
T1 construct: endogenously expressing soluble guanylate cyclase (sGC); endogenous in cells; host or cells: HEK293
T1 sequence (Q02153 1-619): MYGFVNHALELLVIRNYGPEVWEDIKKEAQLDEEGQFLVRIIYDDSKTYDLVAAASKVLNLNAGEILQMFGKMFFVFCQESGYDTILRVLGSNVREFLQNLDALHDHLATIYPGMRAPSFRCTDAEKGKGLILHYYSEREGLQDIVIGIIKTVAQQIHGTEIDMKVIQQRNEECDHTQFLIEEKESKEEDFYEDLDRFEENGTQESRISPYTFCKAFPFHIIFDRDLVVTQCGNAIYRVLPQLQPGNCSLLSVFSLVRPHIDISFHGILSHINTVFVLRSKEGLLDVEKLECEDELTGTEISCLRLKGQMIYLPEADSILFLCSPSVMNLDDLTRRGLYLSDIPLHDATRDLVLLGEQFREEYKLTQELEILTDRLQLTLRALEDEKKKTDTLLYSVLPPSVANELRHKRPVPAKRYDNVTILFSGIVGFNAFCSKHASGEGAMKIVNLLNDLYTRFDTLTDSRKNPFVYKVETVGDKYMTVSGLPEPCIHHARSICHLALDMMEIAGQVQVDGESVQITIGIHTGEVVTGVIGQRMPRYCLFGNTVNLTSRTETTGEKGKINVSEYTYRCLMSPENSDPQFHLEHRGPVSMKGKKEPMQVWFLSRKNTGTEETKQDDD
T1 sequence (Q02108 1-690): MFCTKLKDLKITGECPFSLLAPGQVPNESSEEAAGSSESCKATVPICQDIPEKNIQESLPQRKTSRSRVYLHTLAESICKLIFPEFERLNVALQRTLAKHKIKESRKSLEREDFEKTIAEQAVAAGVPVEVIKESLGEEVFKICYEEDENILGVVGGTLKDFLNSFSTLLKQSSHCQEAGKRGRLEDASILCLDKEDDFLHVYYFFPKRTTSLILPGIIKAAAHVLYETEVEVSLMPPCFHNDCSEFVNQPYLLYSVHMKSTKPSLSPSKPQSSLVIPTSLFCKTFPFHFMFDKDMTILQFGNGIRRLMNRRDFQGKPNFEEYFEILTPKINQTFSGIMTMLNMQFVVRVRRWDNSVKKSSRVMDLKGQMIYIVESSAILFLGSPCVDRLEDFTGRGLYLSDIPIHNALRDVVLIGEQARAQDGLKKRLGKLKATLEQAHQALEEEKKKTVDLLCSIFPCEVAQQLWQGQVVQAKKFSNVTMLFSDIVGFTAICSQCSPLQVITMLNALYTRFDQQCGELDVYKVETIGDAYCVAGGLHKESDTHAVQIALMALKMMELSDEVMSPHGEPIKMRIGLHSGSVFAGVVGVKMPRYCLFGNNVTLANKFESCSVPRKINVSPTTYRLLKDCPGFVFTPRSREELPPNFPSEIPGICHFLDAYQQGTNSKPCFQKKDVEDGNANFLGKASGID
Experimental: Biological Activity Measurement by the sGC-HEK-cGMP Assay
(Assay Run with SNP Incubation)
Human embryonic kidney cells (HEK293), endogenously expressing soluble guanylate cyclase (sGC), were used to evaluate the activity of test compounds. Compounds stimulating the sGC receptor should cause an increase in the intracellular concentration of cGMP. HEK 293 cells were seeded in Dulbecco's Modification of Eagle's Medium supplemented with fetal bovine serum (10% final) and L-glutamine (2 mM final) in a 2004 volume at a density of 1×10^5 cells/well in a poly-D-lysine coated 96 well flat bottom plate and grown overnight at 37° C. Medium was aspirated and cells were washed with 1× Hank's Buffered Saline Salt Solution (2004). Cells were then incubated for 15 minutes at 37° C. with 0.5 mM 3-isobutyl-1-methylxanthine (2004). Test article and sodium nitroprusside were then added to the assay mixture (24 each) and incubated at 37° C. for 10 minutes. After the 10 minute incubation, the assay mixture was aspirated and 0.1M HCl (2004) was added to the cells. The plate was incubated at 4° C. for 30 minutes in the 0.1M HCl to stop the reaction and lysed the cells. The plates were then centrifuged at 1,200 g for 5 minutes at room temperature. Supernatants were collected and transferred to a new flat bottom 96 well plate for analysis. Vehicle controls were carried out using DMSO (1%). A known sGC stimulator, BAY 41-2272, was used as the positive control. Samples were diluted with an equal volume of 1 M Ammonium Acetate (pH 7) to neutralize samples for better chromatography. A 2×cGMP standard curve was prepared in 0.1 M HCl and then diluted with an equal volume of 1 M Ammonium Acetate, with the following final concentrations in nM: 1024, 512, 256, 128, 64, 32, 16, 8, 4, 2, 1.cGMP concentrations were determined from each sample using the LC/MS conditions (Table 2 below) and calculated standard curve. EC50 values were calculated from concentration-response curves generated with GraphPad Prism Software.

[2] = target: T2, Human soluble guanylate cyclase enzyme (hsGC) (Homo sapiens, UniProt Q02108+Q02153); assay: Purified human sGC enzyme activity assay (without SNP); type: biochemical; conditions: compound at 30 μM, absence of SNP, fold over DMSO control
T2 construct: purchased Enzo Inc. ALX-201-177
T2 sequence (Q02153 1-619): T1 sequence (Q02153 1-619)
T2 sequence (Q02108 1-690): T1 sequence (Q02108 1-690)
Experimental: Biological Activity Measurements by the Purified Human sGC Enzyme Activity Assay
(§1) Human soluble guanylate cyclase enzyme (hsGC) obtained from Enzo Inc. (P/N: ALX-201-177) was used to evaluate the activity of test compounds. The assay reactions contained 0.1 M Tris (pH 8.0), 0.5 mg/mL BSA (pH 8.0), 2 mM DTT, 2 mM MgCl2, 300 μM GTP, 1 mM 3-isobutyl-1-methylxanthine (IBMX) and 5 ng human soluble guanylate cyclase enzyme. Test compounds in DMSO were then added (2 μL, 10 or 30 μM final concentration) and incubated (200 μL, 96-well plate format) at 37° C. for 30 minutes. The controls were carried out using 2 μL DMSO. After the 30 minute incubation, the reaction was stopped with the addition of 200 μl of cold methanol. The plate was then centrifuged at 3,200 rpm for 10 minutes at room temperature. Supernatants (200 μL) were collected and transferred to a new 96 well plate for analysis.
(§2) An 8 point cGMP (Sigma-Aldrich P/N: G6129) standard curve was prepared in assay buffer ranging from 0.156-20 μM. Samples for the cGMP standard curve were then diluted with an equal volume of methanol resulting in final cGMP concentrations of 0.078-10 μM.
(§3) The cGMP standard curve was generated using GraphPad Prism Software.
(§4) Calculations: Specific Activity was determined by the amount of cGMP formed (nmoles) per mg of sGC per min. Enzyme “fold-change” was calculated by dividing Specific Activity for test compounds by Specific Activity of DMSO controls.

[3] = target: T2, Human soluble guanylate cyclase enzyme (hsGC); assay: Purified human sGC enzyme synergy assay in the presence of 1 μM sodium nitroprusside (SNP); type: biochemical; conditions: compound at 30 μM, presence of 1 μM SNP
Experimental: as §1, §2, §3, §4
Biological Measurement by the Purified Human sGC Enzyme Synergy Performed in the Presence of Sodium Nitroprusside (SNP), a Nitric Oxide Donor
Enzyme assays were performed as described above, but was done in the absence or presence of 1 μM sodium nitroprusside (SNP).

[4] = Table 3A, top of concentration-response curve not fitted to 100%
[5] = Table 3D, read-out: HEK assay EC50
[6] = top of concentration-response curve not fitted to 100%, Table 3D, read-out: HEK assay EC50-unconstrained
[7] = Table 3C, top of concentration-response curve not fitted to 100%
[8] = Table 3F, read-out: HEK assay EC50
[9] = top of concentration-response curve not fitted to 100%, Table 3F, read-out: HEK assay EC50-unconstrained
[10] = Table 3B, top of concentration-response curve not fitted to 100%
[11] = top of concentration-response curve not fitted to 100%, Table 3E, read-out: HEK assay EC50-unconstrained

Row | Emax [1, 4] | HEK MEC-10 ([1]; Table 3D) | EC50 [1, 5] | EC50 [1, 6] | Enzyme Activity (increase at 30 μM without SNP) ([2]; Table 5A) | Enzyme Activity (increase at 30 μM with SNP) ([3]; Table 5A) | SMILES | also measured
1 | 60 to 80% | C (0.1 to <1 μM) | < 20 µM | 1 to 5 µM | C (5 to <10 fold increase) | E (20 to 30 fold increase) | CC(C)(CC(F)(F)F)C(=O)Nc1cnc(-c2cc(-c3ccon3)n(Cc3ccccc3F)n2)nc1N [Compound 53] | –
2 | 40 to 60% | C (0.1 to <1 μM) | < 20 µM | 1 to 5 µM | B (2 to <5 fold increase) | D (10 or <20 fold increase) | Oc1nc(-c2cc(-c3ccon3)n(Cc3ccccc3F)n2)ncc1-c1ccccn1 [Compound 43] | –
3 | 10 to 20% | E (10 to 50 μM) | 100 to 300 µM | 5 to 10 µM | A (no increase to <2 fold increase) | B (2 to <5 fold increase) | Oc1nc(-c2cc(-c3ccon3)n(Cc3ccccc3F)n2)ncc1-c1ccsc1 [Compound 45] | –
4 | – | – | – | – | – | – | Fc1ccccc1Cn1nc(-c2ncc3cn[nH]c3n2)cc1-c1ccon1 [Compound 113] | Emax [1, 7]: 20 to 40%; HEK MEC-10 ([1]; Table 3F): C (0.1 to <1 μM); EC50 [1, 8]: 20 to 40 µM; EC50 [1, 9]: 0.01 to 0.5 µM; Enzyme Activity (increase at 30 μM without SNP) ([2]; Table 5C): C (5 to <10 fold increase); Enzyme Activity (increase at 30 μM with SNP) ([3]; Table 5C): D (10 or <20 fold increase)
5 | – | – | – | – | – | – | Nc1nc(-c2cc(-c3ccon3)n(Cc3cccc(F)c3F)n2)ncc1NC(=O)c1ccc(F)cc1 [Compound 88] | Emax [1, 10]: 80 to 100%; EC50 [1, 11]: 1 to 5 µM; Enzyme Activity (increase at 30 μM without SNP) ([2]; Table 5B): F (>30 fold increase); Enzyme Activity (increase at 30 μM with SNP) ([3]; Table 5B): E (20 to 30 fold increase)
6 | 80 to 100% | C (0.1 to <1 μM) | < 20 µM | 1 to 5 µM | B (2 to <5 fold increase) | D (10 or <20 fold increase) | Nc1nc(-c2cc(-c3ncco3)n(Cc3ccccc3F)n2)ncc1NC(=O)C1(F)CC1 [Compound 31] | –
7 | 40 to 60% | D (1 to <10 μM) | 40 to 60 µM | 5 to 10 µM | A (no increase to <2 fold increase) | C (5 to <10 fold increase) | O=c1[nH]c(-c2cc(-c3ccon3)n(Cc3ccccc3F)n2)nc(Cl)c1Cl [Compound 54] | –
8 | – | – | – | – | – | – | Cc1cccc(Cn2nc(-c3ncc(F)c(O)n3)cc2-c2ccon2)c1F [Compound 86] | Emax [1, 10]: 60 to 80%; EC50 [1, 11]: 1 to 5 µM; Enzyme Activity (increase at 30 μM without SNP) ([2]; Table 5B): C (5 to <10 fold increase); Enzyme Activity (increase at 30 μM with SNP) ([3]; Table 5B): D (10 or <20 fold increase)
9 | – | – | – | – | – | – | CC1(C)C(=O)Nc2nc(-c3cc(-c4ccon4)n(Cc4ccccc4F)n3)nc(N)c21 [Compound 99, 4-amino-2-(1-(2-fluorobenzyl)-5-(isoxazol-3-yl)-1H-pyrazol-3-yl)-5,5-dimethyl-5H-pyrrolo[2,3-d]pyrimidin-6(7H)-one] | Emax [1, 7]: 40 to 60%; HEK MEC-10 ([1]; Table 3F): B (0.01 to <0.1 μM); EC50 [1, 8]: < 20 µM; EC50 [1, 9]: 0.01 to 0.5 µM; Enzyme Activity (increase at 30 μM without SNP) ([2]; Table 5C): D (10 or <20 fold increase); Enzyme Activity (increase at 30 μM with SNP) ([3]; Table 5C): D (10 or <20 fold increase)
10 | – | – | – | – | – | – | Nc1ccnc(-c2cc(-c3ccon3)n(Cc3cc(F)ccc3F)n2)n1 [Compound 73] | Emax [1, 10]: 60 to 80%; HEK MEC-10 ([1]; Table 3E): C (0.1 to <1 μM); EC50 ([1]; Table 3E, read-out: HEK assay EC50): 60 to 100 µM; EC50 [1, 11]: 0.5 to 1 µM; Enzyme Activity (increase at 30 μM without SNP) ([2]; Table 5B): D (10 or <20 fold increase); Enzyme Activity (increase at 30 μM with SNP) ([3]; Table 5B): D (10 or <20 fold increase)
11 | 20 to 40% | B (0.01 to <0.1 μM) | 40 to 60 µM | 0.01 to 0.5 µM | A (no increase to <2 fold increase) | B (2 to <5 fold increase) | O=c1[nH]c(-c2cc(-c3ccon3)n(Cc3cccnc3F)n2)ncc1F [Compound 67] | –

From US20150342954A1, “2-BENZYL, 3-(PYRIMIDIN-2-YL) SUBSTITUTED PYRAZOLES USEFUL AS SGC STIMULATORS” (IRONWOOD PHARMACEUTICALS, INC., priority 2011, published 2015)
